{"source": "the NIST ThermoML archive (doi:10.1021/je700755t)", "key": {"[1]": {"settings": "101 kPa, Liquid; for viscosity: Capillary tube (Ostwald / Ubbelohde) method"}, "[2]": {"assay": "xn = mol fraction of the nth substance listed", "settings": "101 kPa, Liquid, x2 = 0; for viscosity: Capillary tube (Ostwald / Ubbelohde) method"}}, "note": "Numbers after ± are expanded uncertainties.", "data": [{"molecule": "CC(=O)O", "note": "[acetic acid]", "values": [{"measurement": "mass density", "setting": "[1]; 303.15 K", "value": "1038.66 ± 0.42", "unit": "kg/m3"}, {"measurement": "viscosity", "setting": "[1]; 303.15 K", "value": "1.059 ± 0.009", "unit": "mPa·s"}, {"measurement": "mass density", "setting": "[1]; 313.15 K", "value": "1027.37 ± 0.39", "unit": "kg/m3"}, {"measurement": "viscosity", "setting": "[1]; 313.15 K", "value": "0.92 ± 0.009", "unit": "mPa·s"}, {"measurement": "mass density", "setting": "[1]; 323.15 K", "value": "1016.08 ± 0.35", "unit": "kg/m3"}, {"measurement": "viscosity", "setting": "[1]; 323.15 K", "value": "0.804 ± 0.008", "unit": "mPa·s"}, {"measurement": "mass density", "setting": "[1]; 333.15 K", "value": "1005.04 ± 0.32", "unit": "kg/m3"}, {"measurement": "viscosity", "setting": "[1]; 333.15 K", "value": "0.709 ± 0.008", "unit": "mPa·s"}, {"measurement": "mass density", "setting": "[1]; 343.15 K", "value": "993.69 ± 0.32", "unit": "kg/m3"}, {"measurement": "viscosity", "setting": "[1]; 343.15 K", "value": "0.632 ± 0.007", "unit": "mPa·s"}, {"measurement": "mass density", "setting": "[1]; 353.15 K", "value": "982.95 ± 0.35", "unit": "kg/m3"}, {"measurement": "viscosity", "setting": "[1]; 353.15 K", "value": "0.57 ± 0.007", "unit": "mPa·s"}]}, {"molecule": "CN(C)C=O", "note": "[dimethylformamide]", "values": [{"measurement": "mass density", "setting": "[1]; 303.15 K", "value": "939.45 ± 0.34", "unit": "kg/m3"}, {"measurement": "viscosity", "setting": "[1]; 303.15 K", "value": "0.76 ± 0.008", "unit": "mPa·s"}, {"measurement": "mass density", "setting": "[1]; 313.15 K", "value": "929.86 ± 0.36", "unit": "kg/m3"}, {"measurement": "viscosity", "setting": "[1]; 313.15 K", "value": "0.675 ± 0.007", "unit": "mPa·s"}, {"measurement": "mass density", "setting": "[1]; 323.15 K", "value": "920.92 ± 0.38", "unit": "kg/m3"}, {"measurement": "viscosity", "setting": "[1]; 323.15 K", "value": "0.608 ± 0.007", "unit": "mPa·s"}, {"measurement": "mass density", "setting": "[1]; 333.15 K", "value": "910.64 ± 0.41", "unit": "kg/m3"}, {"measurement": "viscosity", "setting": "[1]; 333.15 K", "value": "0.552 ± 0.007", "unit": "mPa·s"}, {"measurement": "mass density", "setting": "[1]; 343.15 K", "value": "901.72 ± 0.43", "unit": "kg/m3"}, {"measurement": "viscosity", "setting": "[1]; 343.15 K", "value": "0.502 ± 0.007", "unit": "mPa·s"}, {"measurement": "mass density", "setting": "[1]; 353.15 K", "value": "891.44 ± 0.45", "unit": "kg/m3"}, {"measurement": "viscosity", "setting": "[1]; 353.15 K", "value": "0.46 ± 0.007", "unit": "mPa·s"}]}, {"molecule": "CN(C)C=O", "note": "[dimethylformamide] + CC(=O)O", "values": [{"measurement": "viscosity", "setting": "[2]; 303.15 K", "value": "0.76 ± 0.008", "unit": "mPa·s"}, {"measurement": "mass density", "setting": "[2]; 303.15 K", "value": "939.45 ± 0.45", "unit": "kg/m3"}, {"measurement": "viscosity", "setting": "[2]; 313.15 K", "value": "0.675 ± 0.007", "unit": "mPa·s"}, {"measurement": "mass density", "setting": "[2]; 313.15 K", "value": "929.86 ± 0.48", "unit": "kg/m3"}, {"measurement": "viscosity", "setting": "[2]; 323.15 K", "value": "0.608 ± 0.007", "unit": "mPa·s"}, {"measurement": "mass density", "setting": "[2]; 323.15 K", "value": "920.92 ± 0.5", "unit": "kg/m3"}, {"measurement": "viscosity", "setting": "[2]; 333.15 K", "value": "0.552 ± 0.007", "unit": "mPa·s"}, {"measurement": "mass density", "setting": "[2]; 333.15 K", "value": "910.64 ± 0.54", "unit": "kg/m3"}, {"measurement": "viscosity", "setting": "[2]; 343.15 K", "value": "0.502 ± 0.007", "unit": "mPa·s"}, {"measurement": "mass density", "setting": "[2]; 343.15 K", "value": "901.72 ± 0.56", "unit": "kg/m3"}, {"measurement": "viscosity", "setting": "[2]; 353.15 K", "value": "0.46 ± 0.007", "unit": "mPa·s"}, {"measurement": "mass density", "setting": "[2]; 353.15 K", "value": "891.44 ± 0.6", "unit": "kg/m3"}]}, {"molecule": "CN(C)C=O", "note": "[dimethylformamide] + O=CO", "values": [{"measurement": "viscosity", "setting": "[2]; 303.15 K", "value": "0.76 ± 0.008", "unit": "mPa·s"}, {"measurement": "mass density", "setting": "[2]; 303.15 K", "value": "939.45 ± 0.34", "unit": "kg/m3"}, {"measurement": "viscosity", "setting": "[2]; 313.15 K", "value": "0.675 ± 0.007", "unit": "mPa·s"}, {"measurement": "mass density", "setting": "[2]; 313.15 K", "value": "929.86 ± 0.36", "unit": "kg/m3"}, {"measurement": "viscosity", "setting": "[2]; 323.15 K", "value": "0.608 ± 0.007", "unit": "mPa·s"}, {"measurement": "mass density", "setting": "[2]; 323.15 K", "value": "920.92 ± 0.38", "unit": "kg/m3"}, {"measurement": "viscosity", "setting": "[2]; 333.15 K", "value": "0.552 ± 0.007", "unit": "mPa·s"}, {"measurement": "mass density", "setting": "[2]; 333.15 K", "value": "910.64 ± 0.41", "unit": "kg/m3"}, {"measurement": "viscosity", "setting": "[2]; 343.15 K", "value": "0.502 ± 0.007", "unit": "mPa·s"}, {"measurement": "mass density", "setting": "[2]; 343.15 K", "value": "901.72 ± 0.43", "unit": "kg/m3"}, {"measurement": "viscosity", "setting": "[2]; 353.15 K", "value": "0.46 ± 0.007", "unit": "mPa·s"}, {"measurement": "mass density", "setting": "[2]; 353.15 K", "value": "891.44 ± 0.45", "unit": "kg/m3"}]}, {"molecule": "O=CO", "note": "[formic acid]", "values": [{"measurement": "mass density", "setting": "[1]; 303.15 K", "value": "1205.07 ± 0.96", "unit": "kg/m3"}, {"measurement": "viscosity", "setting": "[1]; 303.15 K", "value": "1.437 ± 0.013", "unit": "mPa·s"}, {"measurement": "mass density", "setting": "[1]; 313.15 K", "value": "1192.81 ± 0.92", "unit": "kg/m3"}, {"measurement": "viscosity", "setting": "[1]; 313.15 K", "value": "1.205 ± 0.012", "unit": "mPa·s"}, {"measurement": "mass density", "setting": "[1]; 323.15 K", "value": "1180.63 ± 0.89", "unit": "kg/m3"}, {"measurement": "viscosity", "setting": "[1]; 323.15 K", "value": "1.022 ± 0.01", "unit": "mPa·s"}, {"measurement": "mass density", "setting": "[1]; 333.15 K", "value": "1167.44 ± 0.85", "unit": "kg/m3"}, {"measurement": "viscosity", "setting": "[1]; 333.15 K", "value": "0.879 ± 0.009", "unit": "mPa·s"}, {"measurement": "mass density", "setting": "[1]; 343.15 K", "value": "1154.99 ± 0.82", "unit": "kg/m3"}, {"measurement": "viscosity", "setting": "[1]; 343.15 K", "value": "0.766 ± 0.009", "unit": "mPa·s"}, {"measurement": "mass density", "setting": "[1]; 353.15 K", "value": "1142.08 ± 0.78", "unit": "kg/m3"}, {"measurement": "viscosity", "setting": "[1]; 353.15 K", "value": "0.677 ± 0.008", "unit": "mPa·s"}]}]}
